From patent publication US20250074910A1, “MENIN INHIBITOR AND USE THEREOF” (HITGEN INC., priority 2021, published 2025)

Experiments:
MOLM-13 = experiment: Cell proliferation inhibition (CellTiter-Glo), MOLM-13; assay type: cell-based; conditions: Homo sapiens, MOLM-13, 168 h, MOLM-13 cells
How it was run: (§1)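 Leukemia cells were seeded at 5,000-20,000 cells/well and exposed to test compound at final concentrations from 1 nM to 10 μM. After 72-168 h at 37° C and 5% CO2, viability was measured by CellTiter-Glo luminescence following 10 min at room temperature, and IC50 values were obtained from fitted curves.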

[1] = Pharmacokinetics test in mouse; assay type: in vivo, ICR mice; conditions: mice, p.o. 10 mg/kg; for AUC(0-t) / half-life / Cmax: male, ICR, mouse, plasma, po, 10 mg/kg; for Cmax: read-out: Cmax; for F, %: 1 mg/kg for intravenous injection
How it was run: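 Fasted male ICR mice dosed with compound in saline with 1.5 eq HCl, 1 mg/kg i.v. or 10 mg/kg oral gavage (6 mice each). Plasma sampled 5 min–24 h, measured by LC-MS/MS; t½, Cmax, AUC, CL and F% by non-compartmental analysis, mean±SD.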

OCI-AML3 = experiment: Cell proliferation inhibition (CellTiter-Glo), OCI-AML3 (NPM1 mutation); assay type: cell-based; conditions: Homo sapiens, OCI-AML-3, 168 h, OCI-AML3 cells
How it was run: as §1

[2] = Stability in mouse liver microsomes; assay type: in vitro ADME; conditions: liver microsomes, pH 7.4, 0.5 mg/mL microsomal protein, 1.00 μM compound, NADPH, read-out: Half life T1/2, mouse liver microsomes
How it was run: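 Compound at 1.00 μM incubated at 37° C with 0.5 mg/mL liver microsomal protein and 2.00 mM NADPH in 100 mM phosphate buffer pH 7.4, sampled 0–60 min with acetonitrile quench. Parent remaining by LC-MS/MS; T½ from ln-remaining slope, CLint scaled by microsomal concentration and conversion factor.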

Compound: CC(C)N(C(=O)c1cc(F)ccc1Oc1nncnc1N1CC2(CCN(CC3CC4CCC3CC43CCC(=O)N3)CC2)C1)C(C)C (single isomer, unassigned) [Example 15-1a]
- GI50 (MOLM-13): 154 nM
- AUC(0-t) [1]: 6410 ng·h/mL
- half-life [1]: 1.17 h
- Cmax [1]: 3030 ng/mL
- F, % [1]: 60%
- GI50 (OCI-AML3): 82.5 nM
- half-life at 1 μM [2]: 1.52 h

Compound: CCN(C(=O)c1cc(F)ccc1Oc1cncnc1N1CC2(CCN(C[C@H]3CC[C@]4(CC3)CC(COC)(COC)C(=O)N4)CC2)C1)C(C)C [Example 17]
- GI50 (MOLM-13): 7.9 nM
- AUC(0-t) [1]: 3220 ng·h/mL
- half-life [1]: 1.12 h
- Cmax [1]: 2120 ng/mL
- F, % [1]: 56%
- GI50 (OCI-AML3): 14.2 nM
- half-life at 1 μM [2]: > 2 h

Compound: COCC1(COC)C[C@]2(CC[C@@H](CN3CCC4(CC3)CN(c3ncnnc3Oc3ccc(F)cc3C(=O)N(C(C)C)C(C)C)C4)CC2)NC1=O [Example 20]
- GI50 (MOLM-13): 36.1 nM
- AUC(0-t) [1]: 2180 ng·h/mL
- half-life [1]: 1.88 h
- Cmax [1]: 919 ng/mL
- F, % [1]: 84%
- GI50 (OCI-AML3): 35.2 nM
- half-life at 1 μM [2]: 1.85 h

Compound: COC[C@H]1C[C@]2(CC[C@@H](CN3CCC4(CC3)CN(c3ncnnc3Oc3ccc(F)cc3C(=O)N(C(C)C)C(C)C)C4)CC2)NC1=O [Example 38-1]
- GI50 (MOLM-13): 194 nM
- AUC(0-t) [1]: 5060 ng·h/mL
- half-life [1]: 1.06 h
- Cmax [1]: 2260 ng/mL
- F, % [1]: 67%
- GI50 (OCI-AML3): 115 nM
- half-life at 1 μM [2]: > 2 h

Compound: COC[C@@H]1C[C@]2(CC[C@@H](CN3CCC4(CC3)CN(c3ncnnc3Oc3ccc(F)cc3C(=O)N(C(C)C)C(C)C)C4)CC2)NC1=O [Example 38-2]
- GI50 (MOLM-13): 23.3 nM
- AUC(0-t) [1]: 1980 ng·h/mL
- half-life [1]: 0.83 h
- Cmax [1]: 824 ng/mL
- F, % [1]: 55%
- GI50 (OCI-AML3): 21.8 nM
- half-life at 1 μM [2]: 1.08 h
